Data: paper PMC8429728, “TNK1 is a ubiquitin-binding and 14-3-3-regulated kinase that can be targeted to block tumor growth” (Nature Communications, 2021)
Where two headings read alike, the source gives them in different places.

Legend:
Assay in all cases: biochemical
Design in all cases: Reaction Biology 371-kinase panel at Km ATP, per cent enzyme activity relative to DMSO, single dose in duplicate
Settings in all cases: duplicate measurements, Km ATP
SLK/STK2 = SLK/STK2 (Homo sapiens, UniProt Q9H2G2)
Method in brief: (§1)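 Percent kinase activity relative to vehicle (DMSO) is reported for a 371-kinase in vitro panel at 300 nM compound; IC50 values derive from variable-slope sigmoidal fits with the lower plateau fixed at 0.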

OSR1/OXSR1 = OSR1/OXSR1 (Homo sapiens, UniProt O95747)
Method in brief: as §1

MSK2/RPS6KA4 = MSK2/RPS6KA4 (Homo sapiens, UniProt O75676)
Method in brief: as §1

BRSK1 = BRSK1 (Homo sapiens, UniProt Q8TDC3)
Sequence of BRSK1 (Q8TDC3 whole entry): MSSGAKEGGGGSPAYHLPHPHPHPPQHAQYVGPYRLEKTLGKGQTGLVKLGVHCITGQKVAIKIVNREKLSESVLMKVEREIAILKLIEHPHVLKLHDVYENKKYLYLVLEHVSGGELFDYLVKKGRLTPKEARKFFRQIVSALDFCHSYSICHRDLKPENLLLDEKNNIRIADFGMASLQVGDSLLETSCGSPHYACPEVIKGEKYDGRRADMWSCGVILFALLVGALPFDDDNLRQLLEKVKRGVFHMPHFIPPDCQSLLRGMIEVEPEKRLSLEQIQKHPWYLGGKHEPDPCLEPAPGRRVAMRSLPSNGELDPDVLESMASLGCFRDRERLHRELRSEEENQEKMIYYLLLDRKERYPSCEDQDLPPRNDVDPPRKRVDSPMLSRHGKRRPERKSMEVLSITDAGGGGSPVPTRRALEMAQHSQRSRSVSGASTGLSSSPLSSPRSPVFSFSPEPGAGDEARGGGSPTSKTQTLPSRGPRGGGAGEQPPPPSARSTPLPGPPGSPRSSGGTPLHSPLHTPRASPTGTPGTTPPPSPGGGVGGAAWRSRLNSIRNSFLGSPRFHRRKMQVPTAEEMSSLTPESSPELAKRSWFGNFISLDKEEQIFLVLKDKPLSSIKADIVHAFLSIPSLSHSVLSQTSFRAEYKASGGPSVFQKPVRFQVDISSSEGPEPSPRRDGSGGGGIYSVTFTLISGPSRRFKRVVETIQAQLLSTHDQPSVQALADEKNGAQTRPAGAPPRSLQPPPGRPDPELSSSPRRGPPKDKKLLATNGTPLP
Method in brief: as §1

FES/FPS = FES/FPS (Homo sapiens, UniProt P07332)
Sequence of FES/FPS (P07332 whole entry): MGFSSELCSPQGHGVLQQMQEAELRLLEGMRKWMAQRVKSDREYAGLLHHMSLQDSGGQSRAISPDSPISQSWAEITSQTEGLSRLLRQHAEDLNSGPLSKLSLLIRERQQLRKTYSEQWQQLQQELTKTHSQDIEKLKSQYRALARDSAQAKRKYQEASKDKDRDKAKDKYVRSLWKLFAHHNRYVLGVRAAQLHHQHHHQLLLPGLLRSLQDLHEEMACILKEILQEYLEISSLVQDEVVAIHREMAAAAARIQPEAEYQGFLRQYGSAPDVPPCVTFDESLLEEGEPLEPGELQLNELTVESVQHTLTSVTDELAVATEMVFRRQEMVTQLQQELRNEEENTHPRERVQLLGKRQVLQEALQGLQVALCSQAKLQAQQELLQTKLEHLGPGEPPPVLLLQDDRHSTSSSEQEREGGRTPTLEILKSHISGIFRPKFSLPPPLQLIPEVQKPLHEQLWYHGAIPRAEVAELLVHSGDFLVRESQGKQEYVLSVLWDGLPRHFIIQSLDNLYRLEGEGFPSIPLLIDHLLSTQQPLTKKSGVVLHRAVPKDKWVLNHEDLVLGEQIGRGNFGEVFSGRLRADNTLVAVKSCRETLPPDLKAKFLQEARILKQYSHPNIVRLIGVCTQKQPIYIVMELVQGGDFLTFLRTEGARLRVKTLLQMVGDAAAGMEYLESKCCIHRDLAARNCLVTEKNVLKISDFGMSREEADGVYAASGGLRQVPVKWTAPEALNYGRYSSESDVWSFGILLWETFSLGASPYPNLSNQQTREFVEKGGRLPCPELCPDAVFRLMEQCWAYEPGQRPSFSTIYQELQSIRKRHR
Method in brief: as §1

CLK3 = CLK3 (Homo sapiens, UniProt P49761)
Sequence of CLK3 (P49761 whole entry): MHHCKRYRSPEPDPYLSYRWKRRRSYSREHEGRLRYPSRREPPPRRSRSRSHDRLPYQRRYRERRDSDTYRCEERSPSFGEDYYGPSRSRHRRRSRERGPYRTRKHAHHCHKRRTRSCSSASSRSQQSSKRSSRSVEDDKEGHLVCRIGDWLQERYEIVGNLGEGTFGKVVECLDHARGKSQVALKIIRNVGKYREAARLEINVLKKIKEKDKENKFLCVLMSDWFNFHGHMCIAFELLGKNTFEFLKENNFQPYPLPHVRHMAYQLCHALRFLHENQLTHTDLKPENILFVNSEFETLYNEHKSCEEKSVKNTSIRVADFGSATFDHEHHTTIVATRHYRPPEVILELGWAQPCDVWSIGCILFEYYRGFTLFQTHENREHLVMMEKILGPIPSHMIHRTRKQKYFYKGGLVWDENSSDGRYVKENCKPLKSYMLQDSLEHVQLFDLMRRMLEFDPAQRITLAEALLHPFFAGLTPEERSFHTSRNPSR
Method in brief: as §1

YSK4/MAP3K19 = YSK4/MAP3K19 (Homo sapiens, UniProt Q56UN5)
Sequence of YSK4/MAP3K19 (Q56UN5 whole entry): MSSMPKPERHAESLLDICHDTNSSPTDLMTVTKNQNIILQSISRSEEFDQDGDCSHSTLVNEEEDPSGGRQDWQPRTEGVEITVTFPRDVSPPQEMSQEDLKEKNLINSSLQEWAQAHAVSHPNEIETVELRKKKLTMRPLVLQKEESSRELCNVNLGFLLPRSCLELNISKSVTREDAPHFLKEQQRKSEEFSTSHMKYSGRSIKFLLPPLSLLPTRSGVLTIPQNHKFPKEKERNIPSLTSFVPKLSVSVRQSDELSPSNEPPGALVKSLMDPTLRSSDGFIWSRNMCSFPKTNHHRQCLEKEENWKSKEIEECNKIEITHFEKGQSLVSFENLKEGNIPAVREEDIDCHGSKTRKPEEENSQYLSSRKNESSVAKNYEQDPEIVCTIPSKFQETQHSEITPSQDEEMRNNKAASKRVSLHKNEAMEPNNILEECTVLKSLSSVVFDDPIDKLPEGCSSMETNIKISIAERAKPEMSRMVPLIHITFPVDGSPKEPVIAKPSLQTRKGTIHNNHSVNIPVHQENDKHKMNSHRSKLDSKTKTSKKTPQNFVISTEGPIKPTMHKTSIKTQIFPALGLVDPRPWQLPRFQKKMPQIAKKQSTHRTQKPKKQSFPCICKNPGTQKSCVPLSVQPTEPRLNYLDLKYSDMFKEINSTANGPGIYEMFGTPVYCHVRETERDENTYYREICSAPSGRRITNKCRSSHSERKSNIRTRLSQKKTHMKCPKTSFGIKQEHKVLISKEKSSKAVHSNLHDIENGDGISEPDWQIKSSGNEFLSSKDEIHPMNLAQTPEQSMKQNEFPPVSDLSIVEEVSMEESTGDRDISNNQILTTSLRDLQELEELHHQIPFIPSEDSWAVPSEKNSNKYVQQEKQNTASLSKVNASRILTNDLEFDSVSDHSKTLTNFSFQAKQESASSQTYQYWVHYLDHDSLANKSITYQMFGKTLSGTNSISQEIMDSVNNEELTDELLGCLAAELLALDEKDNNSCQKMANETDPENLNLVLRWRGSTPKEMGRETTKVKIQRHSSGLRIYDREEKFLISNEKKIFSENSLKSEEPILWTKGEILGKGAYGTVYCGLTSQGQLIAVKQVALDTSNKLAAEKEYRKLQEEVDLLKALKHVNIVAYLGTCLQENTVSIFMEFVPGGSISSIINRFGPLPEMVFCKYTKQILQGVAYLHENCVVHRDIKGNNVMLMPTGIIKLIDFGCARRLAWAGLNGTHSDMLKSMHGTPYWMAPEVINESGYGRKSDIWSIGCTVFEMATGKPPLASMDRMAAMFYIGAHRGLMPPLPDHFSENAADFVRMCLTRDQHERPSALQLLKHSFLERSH
Method in brief: as §1

MYO3b = MYO3b (Homo sapiens, UniProt Q8WXR4)
Method in brief: as §1

NEK5 = NEK5 (Homo sapiens, UniProt Q6P3R8)
Sequence of NEK5 (Q6P3R8 whole entry): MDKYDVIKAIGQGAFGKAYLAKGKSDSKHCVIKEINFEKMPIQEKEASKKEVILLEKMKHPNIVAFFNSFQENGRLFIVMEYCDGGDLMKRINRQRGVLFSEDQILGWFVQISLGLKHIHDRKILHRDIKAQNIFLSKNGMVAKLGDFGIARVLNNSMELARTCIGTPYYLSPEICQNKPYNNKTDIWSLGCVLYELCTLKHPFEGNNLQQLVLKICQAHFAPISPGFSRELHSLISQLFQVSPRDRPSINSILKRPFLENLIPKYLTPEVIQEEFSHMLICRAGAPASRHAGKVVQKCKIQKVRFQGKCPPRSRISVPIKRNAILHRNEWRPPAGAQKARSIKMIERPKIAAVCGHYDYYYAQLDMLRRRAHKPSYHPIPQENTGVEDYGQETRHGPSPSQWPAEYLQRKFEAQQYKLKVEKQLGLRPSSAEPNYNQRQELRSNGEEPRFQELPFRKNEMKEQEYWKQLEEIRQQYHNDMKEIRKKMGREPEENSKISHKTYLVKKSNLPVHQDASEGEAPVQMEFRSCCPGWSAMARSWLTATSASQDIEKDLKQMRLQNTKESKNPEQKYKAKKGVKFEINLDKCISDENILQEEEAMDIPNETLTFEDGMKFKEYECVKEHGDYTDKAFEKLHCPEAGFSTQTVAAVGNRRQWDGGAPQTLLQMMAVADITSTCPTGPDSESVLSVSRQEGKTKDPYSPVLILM
Method in brief: as §1

PKCg = biological target: T1, PKCg (Homo sapiens, UniProt P05129)
T1 construct: gene PRKCG
Method in brief: as §1

CDK6/cyclin D1 = CDK6/cyclin D1 (Homo sapiens, UniProt Q00534)
Method in brief: as §1

RIPK4 = RIPK4 (Homo sapiens, UniProt P57078)
Method in brief: as §1

CHK2 = biological target: T2, CHK2 (Homo sapiens, UniProt O96017)
T2 construct: gene CHEK2
Method in brief: as §1

MST1/STK4 = MST1/STK4 (Homo sapiens, UniProt Q13043)
Method in brief: as §1

TRKB = biological target: T3, TRKB (Homo sapiens, UniProt Q16620)
T3 construct: gene NTRK2
Method in brief: as §1

MNK2 = biological target: T4, MNK2 (Homo sapiens, UniProt Q9HBH9)
T4 construct: gene MKNK2
T4 sequence (Q9HBH9 whole entry): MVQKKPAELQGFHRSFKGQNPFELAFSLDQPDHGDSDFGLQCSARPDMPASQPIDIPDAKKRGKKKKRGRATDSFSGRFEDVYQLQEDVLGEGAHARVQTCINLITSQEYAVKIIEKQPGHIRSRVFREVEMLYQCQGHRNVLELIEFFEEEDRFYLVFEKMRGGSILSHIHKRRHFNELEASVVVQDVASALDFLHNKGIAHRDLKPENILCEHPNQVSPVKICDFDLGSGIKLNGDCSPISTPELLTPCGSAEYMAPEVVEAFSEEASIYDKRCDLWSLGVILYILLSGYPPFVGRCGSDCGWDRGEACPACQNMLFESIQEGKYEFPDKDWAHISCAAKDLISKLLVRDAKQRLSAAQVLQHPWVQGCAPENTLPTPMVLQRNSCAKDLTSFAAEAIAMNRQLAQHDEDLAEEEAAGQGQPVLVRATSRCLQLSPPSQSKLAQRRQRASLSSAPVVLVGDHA
Method in brief: as §1

JNK2 = biological target: T5, JNK2 (Homo sapiens, UniProt P45984)
T5 construct: gene MAPK9
T5 sequence (P45984 whole entry): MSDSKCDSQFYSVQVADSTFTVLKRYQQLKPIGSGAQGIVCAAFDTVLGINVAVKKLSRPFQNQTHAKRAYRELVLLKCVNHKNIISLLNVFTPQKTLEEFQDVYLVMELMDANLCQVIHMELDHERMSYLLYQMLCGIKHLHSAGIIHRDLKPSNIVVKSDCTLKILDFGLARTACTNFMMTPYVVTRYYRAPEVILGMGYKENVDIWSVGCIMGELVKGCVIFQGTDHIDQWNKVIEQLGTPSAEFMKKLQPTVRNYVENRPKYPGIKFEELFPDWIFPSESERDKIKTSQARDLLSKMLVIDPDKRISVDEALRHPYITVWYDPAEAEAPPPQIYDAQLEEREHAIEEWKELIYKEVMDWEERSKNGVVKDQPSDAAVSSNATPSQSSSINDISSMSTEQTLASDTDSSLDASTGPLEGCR
Method in brief: as §1

PKG1b = biological target: T6, PKG1b (Homo sapiens, UniProt Q13976)
T6 construct: gene PRKG1; isoform beta
Method in brief: as §1

GRK2 = GRK2 (Homo sapiens, UniProt P25098)
Method in brief: as §1

WNK3 = WNK3 (Homo sapiens, UniProt Q9BYP7)
Method in brief: as §1

[1] = read-out: % Enzyme Activity (relative to DMSO controls) / TP-0005801 (0.3µM) / Data 1
[2] = read-out: % Enzyme Activity (relative to DMSO controls) / TP-0005801 (0.3µM) / Data 2

remaining activity at 0.3 µM (SLK/STK2; [1]): 55.6%
remaining activity at 0.3 µM (SLK/STK2; [2]): 48.5%
remaining activity at 0.3 µM (OSR1/OXSR1; [1]): 110%
remaining activity at 0.3 µM (OSR1/OXSR1; [2]): 104%
remaining activity at 0.3 µM (MSK2/RPS6KA4; [1]): 99%
remaining activity at 0.3 µM (MSK2/RPS6KA4; [2]): 95%
remaining activity at 0.3 µM (BRSK1; [1]): 101%
remaining activity at 0.3 µM (BRSK1; [2]): 95.8%
remaining activity at 0.3 µM (FES/FPS; [1]): 18.2%
remaining activity at 0.3 µM (FES/FPS; [2]): 17.6%
remaining activity at 0.3 µM (CLK3; [1]): 79.1%
remaining activity at 0.3 µM (CLK3; [2]): 77.3%
remaining activity at 0.3 µM (YSK4/MAP3K19; [1]): 93.8%
remaining activity at 0.3 µM (YSK4/MAP3K19; [2]): 92.8%
remaining activity at 0.3 µM (MYO3b; [1]): 57.7%
remaining activity at 0.3 µM (MYO3b; [2]): 56.8%
remaining activity at 0.3 µM (NEK5; [1]): 98.5%
remaining activity at 0.3 µM (NEK5; [2]): 96.9%
remaining activity at 0.3 µM (PKCg; [1]): 115%
remaining activity at 0.3 µM (PKCg; [2]): 107%
remaining activity at 0.3 µM (CDK6/cyclin D1; [1]): 88.2%
remaining activity at 0.3 µM (CDK6/cyclin D1; [2]): 87.5%
remaining activity at 0.3 µM (RIPK4; [1]): 117%
remaining activity at 0.3 µM (RIPK4; [2]): 108%
remaining activity at 0.3 µM (CHK2; [1]): 103%
remaining activity at 0.3 µM (CHK2; [2]): 102%
remaining activity at 0.3 µM (MST1/STK4; [1]): 101%
remaining activity at 0.3 µM (MST1/STK4; [2]): 97.2%
remaining activity at 0.3 µM (TRKB; [1]): 96.1%
remaining activity at 0.3 µM (TRKB; [2]): 95.9%
remaining activity at 0.3 µM (MNK2; [1]): 89.8%
remaining activity at 0.3 µM (MNK2; [2]): 89%
remaining activity at 0.3 µM (JNK2; [1]): 97%
remaining activity at 0.3 µM (JNK2; [2]): 96.3%
remaining activity at 0.3 µM (PKG1b; [1]): 51%
remaining activity at 0.3 µM (PKG1b; [2]): 50%
remaining activity at 0.3 µM (GRK2; [1]): 93%
remaining activity at 0.3 µM (GRK2; [2]): 91.7%
remaining activity at 0.3 µM (WNK3; [1]): 87.5%
remaining activity at 0.3 µM (WNK3; [2]): 86.5%
SMILES: COc1cc(N2CCN(C)CC2)c(C)cc1Nc1ncc(Br)c(Nc2cccnc2N(C)C)n1 [TP-5801]
